Molecular target: P. falciparum apicoplast DNA polymerase (Pf-apPOL) (Plasmodium falciparum, UniProt Q8ILY1)
Assay: Fluorescence-based high-throughput DNA polymerase assay (molecular beacon), primary screen and dose-response
Format: biochemical
Conditions: for DNA Pol: 90 min, 10 µM; for % inhibition apPOL 180' 2.5 / % inhibition apPOL 180' 5 / % inhibition apPOL 180' 10 / % inhibition apPOL 180' 20 / % inhibition apPOL 180' 40 / % inhibition apPOL 180' 80: read at 180'
Method in brief: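 Single-point screening used 10 µM compound with 20 nM polymerase, 20 nM hairpin substrate and 6 µM dNTPs for 90 min at 25 °C. Confirmatory titrations (2.5–80 µM) followed fluorescence at three times, and IC50 was derived from a fit including a cooperativity term n.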

Chain of P. falciparum apicoplast DNA polymerase (Pf-apPOL) (Q8ILY1 entry or part of it): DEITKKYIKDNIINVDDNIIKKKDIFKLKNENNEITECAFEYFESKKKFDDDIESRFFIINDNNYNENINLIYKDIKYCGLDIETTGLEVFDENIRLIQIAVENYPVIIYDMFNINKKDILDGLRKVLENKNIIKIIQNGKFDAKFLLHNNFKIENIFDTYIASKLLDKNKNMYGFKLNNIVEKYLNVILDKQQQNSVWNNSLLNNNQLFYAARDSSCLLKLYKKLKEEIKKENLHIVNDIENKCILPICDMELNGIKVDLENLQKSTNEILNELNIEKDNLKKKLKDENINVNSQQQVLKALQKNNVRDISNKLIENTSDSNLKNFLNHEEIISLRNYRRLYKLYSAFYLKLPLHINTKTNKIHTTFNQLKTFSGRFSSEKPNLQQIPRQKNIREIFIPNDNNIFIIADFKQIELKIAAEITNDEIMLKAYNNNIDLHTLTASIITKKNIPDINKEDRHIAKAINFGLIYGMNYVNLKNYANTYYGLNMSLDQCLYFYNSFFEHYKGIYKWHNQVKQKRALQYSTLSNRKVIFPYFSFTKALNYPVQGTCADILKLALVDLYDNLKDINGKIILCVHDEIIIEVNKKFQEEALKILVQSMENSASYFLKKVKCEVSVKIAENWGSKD

SMILES: O=c1[nH]c2ccc([N+](=O)[O-])cc2c(-c2ccccc2)c1Sc1nc2ccccc2o1 [KU0067471]
- DNA Pol ('DNA Pol' of the 186 hits list (primary screen value)): 28
- DNA Pol (DNA Pol (primary screen value)): 28
- % inhibition Apo pol 10' (DRC-1, concentration 2.5): 11.1433%
- % inhibition Apo pol 10' (DRC-1, concentration 5): 11.3784%
- % inhibition Apo pol 10' (DRC-1, concentration 10): 23.2925%
- % inhibition Apo pol 10' (DRC-1, concentration 20): 44.3997%
- % inhibition Apo pol 10' (DRC-1, concentration 40): 71.988%
- % inhibition Apo pol 10' (DRC-1, concentration 80): 85.2168%
- % inhibition Apol 90' (DRC-1, concentration 2.5): 8.412%
- % inhibition Apol 90' (DRC-1, concentration 5): 5.979%
- % inhibition Apol 90' (DRC-1, concentration 10): 13.3902%
- % inhibition Apol 90' (DRC-1, concentration 20): 30.6503%
- % inhibition Apol 90' (DRC-1, concentration 40): 58.6016%
- % inhibition Apol 90' (DRC-1, concentration 80): 77.507%
- % inhibition apPOL 180' (DRC-1, concentration 2.5): 7.341%
- % inhibition apPOL 180' (DRC-1, concentration 5): 3.743%
- % inhibition apPOL 180' (DRC-1, concentration 10): 8.363%
- % inhibition apPOL 180' (DRC-1, concentration 20): 19.4729%
- % inhibition apPOL 180' (DRC-1, concentration 40): 44.0566%
- % inhibition apPOL 180' (DRC-1, concentration 80): 66.9195%
- % inhibition Apo pol 5' (DRC-2, concentration 2.5): 9%
- % inhibition Apo pol 5' (DRC-2, concentration 5): 12%
- % inhibition Apo pol 5' (DRC-2, concentration 10): 26%
- % inhibition Apo pol 5' (DRC-2, concentration 20): 42%
- % inhibition Apo pol 5' (DRC-2, concentration 40): 59%
- % inhibition Apo pol 5' (DRC-2, concentration 80): 60%
- % inhibition Apol 40' (DRC-2, concentration 2.5): 7%
- % inhibition Apol 40' (DRC-2, concentration 5): 9%
- % inhibition Apol 40' (DRC-2, concentration 10): 24%
- % inhibition Apol 40' (DRC-2, concentration 20): 43%
- % inhibition Apol 40' (DRC-2, concentration 40): 65%
- % inhibition Apol 40' (DRC-2, concentration 80): 72%
- % inhibition ApPOL 90' (DRC-2, concentration 2.5): 5%
- % inhibition ApPOL 90' (DRC-2, concentration 5): 7%
- % inhibition ApPOL 90' (DRC-2, concentration 10): 20%
- % inhibition ApPOL 90' (DRC-2, concentration 20): 40%
- % inhibition ApPOL 90' (DRC-2, concentration 40): 65%
- % inhibition ApPOL 90' (DRC-2, concentration 80): 73%
- % inhibition apPOL 180' (DRC-2, concentration 2.5): -0.297%
- % inhibition apPOL 180' (DRC-2, concentration 5): -0.499%
- % inhibition apPOL 180' (DRC-2, concentration 10): 10%
- % inhibition apPOL 180' (DRC-2, concentration 20): 26%
- % inhibition apPOL 180' (DRC-2, concentration 40): 57%
- % inhibition apPOL 180' (DRC-2, concentration 80): 72%

SMILES: N#Cc1c(O)nc(N2CCCCC2)nc1-c1ccc2c(c1)OCO2 [KU0083146]
- DNA Pol (186 hits, DNA Pol (screen value), unit not given): 49
- DNA Pol ('DNA Pol' (screen value), unit not given): 49
- % inhibition Apo pol 10' 2.5 (DRC-1, read at 10', concentration 2.5): 13.1271%
- % inhibition Apo pol 10' 5 (DRC-1, read at 10', concentration 5): 26.6749%
- % inhibition Apo pol 10' 10 (DRC-1, read at 10', concentration 10): 53.7038%
- % inhibition Apo pol 10' 20 (DRC-1, read at 10', concentration 20): 55.5357%
- % inhibition Apo pol 10' 40 (DRC-1, read at 10', concentration 40): 66.277%
- % inhibition Apo pol 10' 80 (DRC-1, read at 10', concentration 80): 78.8965%
- % inhibition Apol 90' 2.5 (DRC-1, read at 90', concentration 2.5): 5.9065%
- % inhibition Apol 90' 5 (DRC-1, read at 90', concentration 5): 16.8272%
- % inhibition Apol 90' 10 (DRC-1, read at 90', concentration 10): 42.1383%
- % inhibition Apol 90' 20 (DRC-1, read at 90', concentration 20): 45.0693%
- % inhibition Apol 90' 40 (DRC-1, read at 90', concentration 40): 57.8585%
- % inhibition Apol 90' 80 (DRC-1, read at 90', concentration 80): 71.163%
- % inhibition apPOL 180' 2.5 (DRC-1, concentration 2.5): -1.148%
- % inhibition apPOL 180' 5 (DRC-1, concentration 5): 6.188%
- % inhibition apPOL 180' 10 (DRC-1, concentration 10): 30.2008%
- % inhibition apPOL 180' 20 (DRC-1, concentration 20): 34.0367%
- % inhibition apPOL 180' 40 (DRC-1, concentration 40): 46.9072%
- % inhibition apPOL 180' 80 (DRC-1, concentration 80): 62.3261%
- % inhibition Apo pol 5' (DRC-2, concentration 2.5): 13%
- % inhibition Apo pol 5' (DRC-2, concentration 10): 33%
- % inhibition Apo pol 5' (DRC-2, concentration 40): 53%
- % inhibition Apol 40' (DRC-2, concentration 2.5): 13%
- % inhibition Apol 40' (DRC-2, concentration 10): 33%
- % inhibition apPOL 180' (DRC-2, concentration 40): 53%
- % inhibition Apo pol 5' 2.5 (DRC-2, read at 5', concentration 2.5): 13%
- % inhibition Apo pol 5' 5 (DRC-2, read at 5', concentration 5): 27%
- % inhibition Apo pol 5' 10 (DRC-2, read at 5', concentration 10): 33%
- % inhibition Apo pol 5' 20 (DRC-2, read at 5', concentration 20): 44%
- % inhibition Apo pol 5' 40 (DRC-2, read at 5', concentration 40): 53%
- % inhibition Apo pol 5' 80 (DRC-2, read at 5', concentration 80): 57%
- % inhibition Apol 40' 2.5 (DRC-2, read at 40', concentration 2.5): 13%
- % inhibition Apol 40' 5 (DRC-2, read at 40', concentration 5): 28%
- % inhibition Apol 40' 10 (DRC-2, read at 40', concentration 10): 33%
- % inhibition Apol 40' 20 (DRC-2, read at 40', concentration 20): 49%
- % inhibition Apol 40' 40 (DRC-2, read at 40', concentration 40): 60%
- % inhibition Apol 40' 80 (DRC-2, read at 40', concentration 80): 65%
- % inhibition ApPOL 90' 2.5 (DRC-2, read at 90', concentration 2.5): 11%
- % inhibition ApPOL 90' 5 (DRC-2, read at 90', concentration 5): 26%
- % inhibition ApPOL 90' 10 (DRC-2, read at 90', concentration 10): 31%
- % inhibition ApPOL 90' 20 (DRC-2, read at 90', concentration 20): 47%
- % inhibition ApPOL 90' 40 (DRC-2, read at 90', concentration 40): 59%
- % inhibition ApPOL 90' 80 (DRC-2, read at 90', concentration 80): 66%
- % inhibition apPOL 180' 2.5 (DRC-2, concentration 2.5): 5.4%
- % inhibition apPOL 180' 5 (DRC-2, concentration 5): 17%
- % inhibition apPOL 180' 10 (DRC-2, concentration 10): 23%
- % inhibition apPOL 180' 20 (DRC-2, concentration 20): 40%
- % inhibition apPOL 180' 40 (DRC-2, concentration 40): 53%
- % inhibition apPOL 180' 80 (DRC-2, concentration 80): 61%

Reference: article PMC9090415, “Discovery of small molecule inhibitors of Plasmodium falciparum apicoplast DNA polymerase” (Journal of Enzyme Inhibition and Medicinal Chemistry, 2022)
